According to patent US20250099517A1, “Use of Lactobacillus reuteri Y7 strain for prevention or treatment of ocular diseases” (Taipei Medical University, priority 2023, published 2025):

Legend:
[1] = test system: MCP-1, IL-18, NLRP3, NF-KB p65, Caspase1 gene expression; experiment: q-PCR of inflammation-related gene expression in eyes; format: in vivo, C57BL/6 mice; conditions: for gene expression of MCP-1 compared with the BL group / gene expression of NF-KB p65 compared with the BL group: p<0.05; for gene expression of Caspase1 / gene expression of IL-18 / gene expression of NLRP3: versus increase in BL group
Method: The C57BL/6 mice, which weighed between 23 and 25 g, were divided into seven groups randomly. In each group, the six mice induced by blue light successfully were incorporated in experiments. The samples dissolved in deuterium-depleted water (DDW) were fed to mice through oral tubes once a day. The groups were named and introduced as follows: • (1) Solvent not classified group (NC): The mice were fed with 0.2 ml deuterium-depleted water (DDW) through tubes; • (2) Negative control group (Blue light (BL)): The mice were fed with 0.2 ml deuterium-depleted water (DDW) through tubes and exposed to blue light; • (3) Low-dosage Y7 probiotics group […]): The mice were fed with low-dosage Y7 probiotics (probiotic counts of 1.0×10^8 CFU/ml dissolved in 0.2 ml DDW per day) and exposed to blue light; • (4) High-dosage Y7 probiotics group […]): The mice were fed with high-dosage Y7 probiotics (probiotic counts of 1.0×10^9 CFU/ml dissolved in 0.2 ml DDW per day) and exposed to blue light; • (5) Positive control group (lutein (LU)): The mice were fed with lutein and exposed to blue light. The recommended human dosage of lutein is 30 mg. The mouse cage (48×25×20 cm) placed inside a stainless ventilated box was equipped with blue light boards as blue light sources around and above. In the experiment of animals exposed to blue light, six-week-old mice staying in the mouse cage were fed with drinking water as well as fodders and exposed to 400 Lux blue light illumination under the light-dark cycle of 12-hour light and 12-hour dark. The experiment was aimed at causing mice' late dry macular disease induced by chronic light injuries for simulating a human being's macular disease after long-term exposure to short-wavelength blue light from 3C products in daily life. The eyes of a mouse sacrificed were collected for the following purposes. RNAs extracted with Trizol were reverse-transcribed to cDNAs. Then, the real-time quantitative polymerase chain reaction was enabled to detect gene expressions related to inflammatory hormones and apoptosis such as TNF-α, IL-1B, IL-6, Bax, Bcl-2, Caspase1, Caspase3 and NLRP3 for comparisons with the endogenous level of β-actin, GAPDH or 18S rRNA. [table] The gene expressions related to a mouse's ocular inflammation, for example, MCP-1 (FIG. 8a), IL-18 (FIG. 8b), NLRP3 (FIG. 8c), NF-KB p65 (FIG. 8d), Caspase1 (FIG. 8e), TNF-α (FIG. 8f), IL-6 (FIG. 8g) and IL-1β (FIG. 8h), were analyzed in the experiment. […] In summary, the intervention of Y7 probiotics relieved ocular inflammation attributed to blue light.

[2] = test system: Bax, Bcl-2, Caspase3 gene expression; experiment: q-PCR of apoptosis-related gene expression in eyes; format: in vivo, C57BL/6 mice
Method: The C57BL/6 mice, which weighed between 23 and 25 g, were divided into seven groups randomly. In each group, the six mice induced by blue light successfully were incorporated in experiments. The samples dissolved in deuterium-depleted water (DDW) were fed to mice through oral tubes once a day. The groups were named and introduced as follows: • (1) Solvent not classified group (NC): The mice were fed with 0.2 ml deuterium-depleted water (DDW) through tubes; • (2) Negative control group (Blue light (BL)): The mice were fed with 0.2 ml deuterium-depleted water (DDW) through tubes and exposed to blue light; • (3) Low-dosage Y7 probiotics group […]): The mice were fed with low-dosage Y7 probiotics (probiotic counts of 1.0×10^8 CFU/ml dissolved in 0.2 ml DDW per day) and exposed to blue light; • (4) High-dosage Y7 probiotics group […]): The mice were fed with high-dosage Y7 probiotics (probiotic counts of 1.0×10^9 CFU/ml dissolved in 0.2 ml DDW per day) and exposed to blue light; • (5) Positive control group (lutein (LU)): The mice were fed with lutein and exposed to blue light. The recommended human dosage of lutein is 30 mg. The mouse cage (48×25×20 cm) placed inside a stainless ventilated box was equipped with blue light boards as blue light sources around and above. In the experiment of animals exposed to blue light, six-week-old mice staying in the mouse cage were fed with drinking water as well as fodders and exposed to 400 Lux blue light illumination under the light-dark cycle of 12-hour light and 12-hour dark. The experiment was aimed at causing mice' late dry macular disease induced by chronic light injuries for simulating a human being's macular disease after long-term exposure to short-wavelength blue light from 3C products in daily life. The eyes of a mouse sacrificed were collected for the following purposes. RNAs extracted with Trizol were reverse-transcribed to cDNAs. Then, the real-time quantitative polymerase chain reaction was enabled to detect gene expressions related to inflammatory hormones and apoptosis such as TNF-α, IL-1B, IL-6, Bax, Bcl-2, Caspase1, Caspase3 and NLRP3 for comparisons with the endogenous level of β-actin, GAPDH or 18S rRNA. [table] The gene expressions related to apoptosis in test mice' eyes, for example, Bax (FIG. 9a), Bcl-2 (FIG. 9b) and Caspase3 (FIG. 9c), were analyzed in the experiment.

[3] = after intervention of Y7 probiotics (dosage groups not distinguished)

## Lactobacillus reuteri Y7 [Y7 probiotics]
[1]; Y7H high-dosage group
  gene expression of MCP-1 compared with the BL group: reduced significantly
  gene expression of NF-KB p65 compared with the BL group: reduced significantly
  gene expression of Caspase1: decreased
  gene expression of IL-18: decreased
  gene expression of NLRP3: decreased
[1]; Y7L low-dosage group
  gene expression of MCP-1 compared with the BL group: reduced significantly
  gene expression of NF-KB p65 compared with the BL group: reduced significantly
  gene expression of Caspase1: decreased
  gene expression of IL-18: decreased
  gene expression of NLRP3: decreased
[2]; Y7H high-dosage group
  gene expression of Bcl-2 compared with the BL group: increased significantly
[2]; Y7L low-dosage group versus LU group
  gene expression of Bax, closeness to the NC group: closer to the NC group than the LU group
[2]; [3]
  gene expression of Bax: significantly inhibited
  gene expression of Caspase3: closer to the NC group
